In the NIST ThermoML archive (doi:10.1016/j.fluid.2010.12.003):

Experiment: xn = mol fraction of the nth substance listed
Conditions: 101 kPa, Fluid (supercritical or subcritical phases), Taylor dispersion method, x1 = 0

binary diffusion coefficient (298 K) | binary diffusion coefficient (312 K) | binary diffusion coefficient (332 K) | binary diffusion coefficient (352 K) | binary diffusion coefficient (372 K) | binary diffusion coefficient (392 K) | binary diffusion coefficient (413 K) | SMILES
2.5e-10 m2/s | 2.87e-10 m2/s | 3.3e-10 m2/s | 4.07e-10 m2/s | – | – | – | O=C(O)c1cc(O)c(O)c(O)c1 [3,4,5-trihydroxybenzoic acid] + O
2.46e-10 m2/s | 3.2e-10 m2/s | 3.84e-10 m2/s | 4.15e-10 m2/s | 5.12e-10 m2/s | 5.27e-10 m2/s | – | O=C(O)c1ccc(O)c(O)c1 [3,4-dihydroxybenzoic acid] + O

Further lines, the compound ahead of its results:

SMILES | binary diffusion coefficient (298 K) | binary diffusion coefficient (312 K) | binary diffusion coefficient (332 K) | binary diffusion coefficient (352 K) | binary diffusion coefficient (372 K) | binary diffusion coefficient (392 K) | binary diffusion coefficient (413 K)
O=c1c(O[C@@H]2O[C@H]([C@H](O)CO)[C@H](O)[C@H]2O)c(-c2ccc(O)c(O)c2)oc2cc(O)cc(O)c12 [isoquercitrin] + O | 1.66e-10 m2/s | 2.19e-10 m2/s | 2.77e-10 m2/s | 3.07e-10 m2/s | 3.51e-10 m2/s | – | –
COc1cc(-c2[o+]c3cc(O)cc(O[C@@H]4O[C@H](CO)[C@@H](O)[C@H](O)[C@H]4O)c3cc2O[C@@H]2O[C@H](CO)[C@@H](O)[C@H](O)[C@H]2O)cc(OC)c1O.[Cl-] [malvidin-3,5-diglucoside chloride] + O | 2.16e-10 m2/s | 2.71e-10 m2/s | 3.6e-10 m2/s | 4.41e-10 m2/s | 5.15e-10 m2/s | 5.3e-10 m2/s | 5.79e-10 m2/s
COc1cc(-c2[o+]c3cc(O)cc(O)c3cc2O[C@@H]2O[C@H](CO)[C@@H](O)[C@H](O)[C@H]2O)ccc1O.[Cl-] + O | 2.19e-10 m2/s | 2.67e-10 m2/s | 3.65e-10 m2/s | 4.52e-10 m2/s | 5.39e-10 m2/s | 6.18e-10 m2/s | 6.49e-10 m2/s
Oc1cc(O)c2c(c1)O[C@H](c1ccc(O)c(O)c1)[C@@H](O)C2 [(+)-catechin] + O | 2.33e-10 m2/s | 3.07e-10 m2/s | 3.76e-10 m2/s | 4.05e-10 m2/s | 4.25e-10 m2/s | 4.78e-10 m2/s | 5.3e-10 m2/s
Oc1cc(O)c2c(c1)O[C@H](c1ccc(O)c(O)c1)[C@H](O)C2 + O | 1.97e-11 m2/s | 2.66e-11 m2/s | 3.38e-11 m2/s | 3.89e-11 m2/s | 4.06e-11 m2/s | 5.19e-11 m2/s | –
